Data from patent US20190224213A1, “VAGINAL COMPOSITION COMPRISING A COMBINATION OF ESTROGEN AND VITAMIN D” (CHEMO RESEARCH S.L., priority 2016, published 2019).

Columns and labels:
[1] = Body weight evolution in ovariectomized rats during 6-week local treatment; format: in vivo, rat; settings: 6-week treatment, irrespective of the dose
Excerpt: (§1) 8-10 weeks-old female Sprague Dawley rats (Janvier, France) are first acclimated during a period of time of one week or more.
(§2) The acclimated rats undergo a bilateral ovariectomy (at “Day 0”), so as to induce an experimental menopause.
(§3) Three weeks after ovariectomy (at Day 21), the ovariectomized rats are divided in five distinct groups of at least eight animals per group, respectively: • Group 1: the ovariectomized rats receive no treatment at all • Group 2: the ovariectomized rats are administered once daily with an ovule comprising a liquid saline (placebo) • Group 3: the ovariectomized rats are administered once daily with an ovule comprising estradiol alone, in the absence of vitamin D analog • Group 4: the ovariectomized rats are administered once daily with an ovule comprising vitamin D analog alone, in the absence of estradiol. • Group 5: the ovariectomized rats are administered once daily with an ovule comprising (i) the combination of estradiol and vitamin D analog.
(§4) Each of the Groups 1, 2, 3, 4 and 5 of ovariectomized rats receives the indicated treatment during a period of time of six weeks (thus until Day 63).
The body weight of each tested animal is monitored twice a week.

[2] = Calcium plasma level in ovariectomized rats; format: in vivo, rat
Description: as §3, §4

[3] = tested on: vaginal epithelium; test: Vaginal Maturation Index: percentage of leukocytes in vaginal smears of ovariectomized rats; format: in vivo, rat; settings: calcitriol alone at 0.006 μg
Description: as §3, §4
(§5) Smears of vaginal tissue are collected from each of the tested animal by gentle scraping along the wall of the vagina the day before the first treatment and the day following the last treatment for determining the Vaginal Maturation Index (VMI).
(§6) For each rat, 2 samples are taken by gentle scraping along the wall of the vagina. […]
(§7) VMI is assessed as a ratio obtained through performing a random count of 3 major cell types. […]

[4] = tested on: vaginal epithelium; test: Vaginal Maturation Index: percentage of cornified cells in vaginal smears of ovariectomized rats; format: in vivo, rat; settings: calcitriol, irrespectively of the doses tested
Description: as §3, §4, §5, §6, §7

[5] = tested on: vaginal epithelium; test: Vaginal epithelium thickness evaluation in ovariectomized rats; format: in vivo, rat; settings: 6-week treatment
Excerpt: as §1, §2, §3, §4
One part of the vagina tissue material is paraffin-embedded. Slices of the paraffin-embedded vaginal tissue are stained for studying and measuring the vaginal epithelium thickness as well as the vaginal epithelium morphology. […]

[6] = tested on: vaginal epithelium; settings: oral 0.500 mcg calcitriol/day, at least one year, vs non-supplemented postmenopausal women; cited from earlier work
[7] = tested on: vaginal epithelium; test: Histology of the vaginal tissue cornified cell layer in ovariectomized rats (FIG. 3); format: in vivo, rat
Description: as §3, §4
One part of the vagina tissue material is paraffin-embedded. Slices of the paraffin-embedded vaginal tissue are stained for studying and measuring the vaginal epithelium thickness as well as the vaginal epithelium morphology.
Vaginal tissue is then separated into two parts: • one half is fixed in 10% neutral buffered formalin and paraffin-embedded for epithelium thickness evaluation and morphology (H&E coloration) • the second half will be immediately frozen and stored at −80° C. for further evaluation.
Vaginal tissue is embedded in paraffin, sectioned and stained with hematoxylin/eosine (2 slides/rat) using a fully automated multi-stainer system for histological analysis, the Multistainer ST5020 in conjunction with the CV5030 Coverslipper marketed by the Company Leica Biosystems (Germany).

[8] = tested on: vaginal maturation index and urogenital symptoms; settings: oral raloxifene 60 mg/day with 400 IU vitamin D and 600 mg calcium, 3 months, vs risedronate-based regimen; cited from earlier work
[9] = tested on: vaginal atrophy; settings: vaginal suppository 1000 IU, daily for 8 weeks, 44 postmenopausal women; cited from earlier work

C=C1/C(=C\C=C2/CCC[C@]3(C)[C@@H]([C@H](C)CCCC(C)(C)O)CC[C@@H]23)C[C@@H](O)C[C@@H]1O [Calcitriol, 1α,25-dihydroxyvitamin D3]
body weight evolution [1]: did not cause any change | calcium plasma level: significance versus placebo ([2]; Calcitriol 0.08 μg): **** (“****” means p<0.001 versus placebo) | calcium plasma level: significance versus placebo ([2]; Calcitriol 0.1 μg): **** (“****” means p<0.001 versus placebo) | calcium plasma level ([2]; calcitriol dose 0.006 μg): did not cause any significant change | calcium plasma level ([2]; dose of 0.08 μg): significantly increased | calcium plasma level ([2]; dose of 0.1 μg): significantly increased | vaginal epithelium content in leukocytes [3]: no effect | content of the vaginal epithelium cornified cells [4]: no significant change | vaginal epithelium thickness as compared to placebo ([5]; calcitriol alone, irrespective of the dose tested): did not cause any change | squamous maturation of the vaginal epithelium [6]: resulted in squamous maturation

C[C@]12CC[C@@H]3c4ccc(O)cc4CC[C@H]3[C@@H]1CC[C@@H]2O [Estradiol, (17beta)-estra-1,3,5(10)-triene-3,17-diol]
body weight evolution [1]: did not cause any change | vaginal epithelium thickness as compared to placebo ([5]; 0.4 μg dose of estradiol): high increase | cornified cell layer in histological photograph ([7]; 0.02 μg dose of estradiol (FIG. 3B)): does not cause a detectable change | cornified cell layer in histological photograph ([7]; 0.08 μg estradiol (FIG. 3C)): thickness and a density which increase with the increasing doses | cornified cell layer in histological photograph ([7]; 0.4 μg estradiol (FIG. 3D)): thickness and a density which increase with the increasing doses

O=C(c1ccc(OCCN2CCCCC2)cc1)c1c(-c2ccc(O)cc2)sc2cc(O)ccc12 [raloxifene]
vaginal maturation index [8]: improvement | vaginal pH [8]: improvement

vitamin D
superficial cells in the vaginal epithelium [9]: significant increase | vaginal pH [9]: significant decrease
